Data set [1] concerns BMP-2 promoter. Nature of the data set: BMP-2 promoter luciferase assay in 2T3 cells (Example 1). In kind it is cell-based, murine. From the text:
Such activity may be determined using any one of a number of methods known to the skilled artisan, such as by using the luciferase promoter assay described in Example 1. […] Since BMP-2 luciferase promoter constructs were transfected into immortalized murine osteoblasts (2T3 cells), the stimulation of luciferase activity is reasonably correlated to a osteoblast proliferation stimulation activity as recognized by those of ordinary skill in the art.
This technique has been described in the scientific literature [Ghosh-Choudhury, N.; Windle, J; J.; Koop, B. A.; Harris, M. A.; Guerrero, D. L.; Wozney, J. M.; Mundy, G. R.; Harris, S. E.; “Immortalized Murine Osteoblasts Derived from BMP 2-T-Antigen Expressing Transgenic Mice” Endocrinology (1996) 137, 331-339]. […]
Immortalized murine osteoblasts (2T3 cells) containing a bone morphogenetic protein 2 (BMP-2) promoter fragment are isolated from the calvaria of transgenic mice and cloned. […] Employing this BMP-2 promoter assay as an additional screening technique, the ED50 of compounds that stimulate luciferase activity, and, by inference, osteoblast proliferation, can be further assessed. […]
The transfection is carried out by the calcium phosphate precipitation technique. […] Luciferase enzyme activity can be measured in 15 different clonal cell lines. […] Luciferase activity is measured using a kit from Promega and a luminometer.

Each structure is given as a SMILES string.

As a reminder, the melting point is the temperature of the solid-liquid transition. Turning to `CC(C)Oc1ccc2c(c1)Cc1ccccc1C2=O` [anthrone, 3-i-propoxyanthrone], the melting point lay in the range of 123 to 124 °C. In data set [1] (assay for BMP-2 promoter activity, compared to control), the “production of luciferase action / BMP-2 promoter activity, in words” value is recorded as “reduced pharmacological activity”. In the case of `COc1ccc(C(=O)Nc2nc3ccccc3s2)cc1` [2-(4-methoxybenzoyamino)-1,3-benzthiazole, reference compound], in data set [1] (assay conditions of Example 1, stimulation of luciferase activity, read-out: ED50 in the promoter assay), the EC50 was approximately 100 nM.
